The values below come from US20100022457A1 (Bristol-Myers Squibb Company, priority 2006, published 2010).

One may read the AUC as the area under the concentration-time curve, a measure of exposure. In general, MRT refers to the average time that molecules of a dose stay in the body. Usually Tmax stands for the time from dosing to the highest level.

Read-outs that look alike come from different tables or passages of the source. Where a SMILES comes first, the peptide text is derived from it. [ ]: non-standard residue; d: D form. Ala(6-(2-MePh)pyridin-3-yl) = Cc1ccccc1-c1ccc(C[C@H](N)C(=O)O)cn1; Bip(2'-Et-4'-OMe) = CCc1cc(OC)ccc1-c1ccc(C[C@H](N)C(=O)O)cc1; αMePhe(2-F) = C[C@](N)(Cc1ccccc1F)C(=O)O; Aib = CC(C)(N)C(=O)O

One data set concerns C57BL/6J-ob/ob mice. Put plainly: Intraperitoneal glucose tolerance test (ipGTT) in ob/ob mice after subcutaneous injection. The data set is classed as in vivo, mouse. Here is the method: Peptides were dissolved in an appropriate vehicle at a concentration in nmol/ml equivalent to the dose that was to be administered in nmol/kg so that each mouse would receive the same volume/weight of dosing solution. Male C57BL/6J-ob/ob mice (10 weeks old) were randomized into groups of 6 mice per group based on fed plasma glucose and body weight. After an overnight fast, mice were weighed and placed in the experimental lab. After 30 min in the environment, the mice were bled via tail tip at −30 min and immediately injected subcutaneously (sc) with vehicle or the peptide dissolved in vehicle (0.1 ml solution/100 g body weight). At time 0 the mice were bled and then injected intraperitoneally with 50% glucose (2 g/kg) to initiate the intraperitoneal glucose tolerance test (ipGTT). The mice were bled 30, 60, 120 and 180 min after the glucose injection. Blood samples were drawn into potassium EDTA, placed on ice during the study and subsequently centrifuged for 10 min at 3000 rpm at 4° C. Plasma samples were diluted 1-fold for glucose analysis in the Cobas System. Another 5 μl plasma sample was diluted 5-fold with 20 μl of Sample Diluent (Insulin ELISA assay kit, Crystal Chem Inc.) and stored at −20° C. for subsequent analysis using the Ultra Sensitive Mouse Insulin ELISA kit (Crystal Chem Inc.).

Data set [1] is described as follows: Exposure during ipGTT in ob/ob mice. The data set is classed as in vivo, mouse. The note with it: sc.
Data set [2] can be described thus: Dog pharmacokinetic study (intravenous and subcutaneous, 67 μg/kg). The format is in vivo. The conditions noted are these: for half-life: read-out: t1/2 (converted). On the procedure:
The pharmacokinetic parameters of the compound of SEQ ID NO:9 were determined in male beagle dogs (n=4, 14±1 kg). Following an overnight fast, each animal received the compound of SEQ ID NO:9 either as an intravenous bolus via femoral vein (67 μg/kg) or by subcutaneous injection given at near the shoulder blades (67 μg/kg). Each animal received both intravenous and subcutaneous doses with a one-week washout between doses following a crossover design. […] Serial blood samples were collected in EDTA-containing microcentrifuge tubes at predose, 0.083, 0.25, 0.5, 0.75, 1, 2, 4, 6, 8, 24, and 30 hours post-dose after intravenous administration; at predose, 0.25, 0.5, 0.75, 1, 2, 4, 6, 8, 24, and 30 hours post-dose after subcutaneous administration. Approximately 0.3 mL of blood was collected at each time point. Blood samples were immediately centrifuged at 4° C. The obtained plasma was frozen with dry ice and stored at −20° C. Plasma drug levels were determined using the LC-MS/MS assay described above.
Plasma samples from in vivo dog study were prepared for analysis by precipitating plasma proteins with two volumes of acetonitrile containing an internal standard. The samples were vortex mixed and removed the precipitated proteins by centrifugation. The resulting supernatants were transferred to a 96-well plate and 10 μL were injected for analysis. Samples were prepared with the Packard Multiprobe II and Quadra 96 Liquid Handling System.
The HPLC system consisted of two Shimadzu LC10AD pumps (Columbia, Md.), a CTC PAL autosampler (Leap Technologies, Switzerland). The column used was a YMC Hydrosphere C18 (2.0×50 mm, 3 μm) (YMC, Inc., Milford, Mass.). The column temperature was maintained at 50° C. and the flow rate was 0.3 mL/minute. The mobile phase A consisted of 10 mM ammonium formate and 0.1% formic acid in water and mobile phase B consisted of 0.1% formic acid in acetonitrile. The initial mobile phase composition was 5% B, and remained at 5% B for one minute to equilibrate the column. The composition was ramped to 95% B over two minutes and held there for one additional minute. The mobile phase was then returned to initial conditions in one minute. Total analysis time was five minutes. A switching valve was used. The eluents between 0-1 minute were diverted to the waste.
The HPLC was interfaced to a Sciex API 4000 mass spectrometer, (Applied Biosystems, Foster City, Calif.) and was equipped with a TurboIonspray ionization source. Ultra high purity nitrogen was used as the nebulizing and turbo gas. The temperature of turbo gas was set at 300° C. and the interface heater was set at 60° C. Data acquisition utilized selected reaction monitoring (SRM). Ions representing the (M+2H)^2+ species for the compound of SEQ ID NO:9, and (M+2H)^2+ for BMS-501143 (IS) were selected in Q1 and were collisionally dissociated with high purity nitrogen at a pressure of 3.5×10^−3 torr to form specific product ions which were subsequently monitored by Q3.
The standard curve concentrations, ranging from 1 to 1000 nM and from 4 to 5000 nM, were used for the in vivo samples obtained from low and high doses, respectively. The curves were fitted with a quadratic regression weighted by reciprocal […]. Standards were analyzed in duplicate. Quality control (QC) samples, prepared in blank matrix at the same concentrations as the standard were also analyzed in each analytical set. For the compound of SEQ ID NO:9, the calculated concentrations of more than 80% of the QCs were within 20% of nominal concentration, indicating acceptable assay performance.
The compound of SEQ ID NO:9 plasma concentration vs. time data were analyzed by noncompartmental methods using the […]™ software program. The Cmax and Tmax values were recorded directly from experimental observations. The AUC0-n and AUCtot values were calculated using a combination of linear and log trapezoidal summations. […]

Setting [3] is: male, beagle, plasma, 67 ug/kg, dog, intravenous 67 μg/kg, propylene glycol:phosphate buffer (50:50).
Setting [4] is: male, beagle, plasma, sc, 67 ug/kg, dog, subcutaneous 67 μg/kg, propylene glycol:phosphate buffer (50:50).

On to `CCc1cc(OC)ccc1-c1ccc(C[C@H](NC(=O)[C@H](CC(=O)O)NC(=O)[C@H](CO)NC(=O)[C@@H](NC(=O)[C@](C)(Cc2ccccc2F)NC(=O)[C@@H](NC(=O)CNC(=O)[C@H](CCC(=O)O)NC(=O)C(C)(C)NC(=O)[C@@H](N)Cc2c[nH]cn2)[C@@H](C)O)[C@@H](C)O)C(=O)N[C@@H](Cc2ccc(-c3ccccc3C)nc2)C(N)=O)cc1` [SEQ ID NO: 9] (H-H[Aib]EGT[αMePhe(2-F)]TSD[Bip(2'-Et-4'-OMe)][Ala(6-(2-MePh)pyridin-3-yl)]-NH2), for which the “Potency in ob/ob mice: % AUC Reduction in Plasma Glucose in an IP Glucose Tolerance Test after SC Injection of Compound” value in the data set on C57BL/6J-ob/ob mice (10 nmol/kg sc, relative to vehicle-treated group) is listed as −68% (p < 0.0001). Moreover, in the data set on C57BL/6J-ob/ob mice (30 nmol/kg sc, ipGTT ob/ob mice), the “maximum increase in postprandial insulin AUC” value stood at 187.7%. Further, the “plasma glucose AUC decrease” value in the data set with C57BL/6J-ob/ob mice (100 nmol/kg sc, ipGTT ob/ob mice) is recorded as 85.8%. Besides, the “effect on postprandial plasma glucose” value in the data set on C57BL/6J-ob/ob mice (sc in ob/ob mice, between 0 and 180 or 210 minutes) is “statistically significant decrease”. The “Potency in ob/ob mice ED50” value in the data set with C57BL/6J-ob/ob mice (sc injection, plasma glucose AUC in ipGTT) is 5 nmol/kg. For the same compound, the “Exposure/dose during ipGTT in ob/ob mice” value in data set [1] is given as 18 nM*h/nmol/kg. The “Exposure in dogs (sc@67 μg/kg)” value in data set [2] (Table I, vehicle 0.2 M Tris buffer (pH 8.0)) worked out at 0.452 µM·h. Further, the “Exposure in dogs (sc@67 μg/kg)” value in data set [2] (Table II, vehicle propylene glycol/pH 7.4 phosphate buffer (1:1)) was 1.23 µM·h. In addition, in data set [2] (dog, extracellular fluid 0.14 L/kg), the “Vss as % of extracellular fluid” value is recorded as 71 % of extracellular fluid. The “systemic clearance as % of liver blood flow” value in data set [2] (dog, liver blood flow 31 mL/min/kg) is reported as 3.2 % of liver blood flow. The “Vss as times of vascular fluid” value in data set [2] (dog, vascular fluid 0.05 L/kg) is listed as 2 times of vascular fluid. Also, in data set [2] (setting [3]), the AUC is 1.27 ± 0.299 µM·h, the MRT turned out to be 3 ± 1 h and the half-life was 5.1 ± 0.5 h. Further, the clearance in data set [2] (male, beagle, plasma, 67 ug/kg, dog, intravenous 67 μg/kg, propylene glycol:phosphate buffer (50:50), read-out: CLp) was 0.6 ± 0.1 mL/min/kg. Also, the Vd in data set [2] (male, beagle, plasma, 67 ug/kg, dog, intravenous 67 μg/kg, propylene glycol:phosphate buffer (50:50), read-out: VSS) came out at 0.1 ± 0.03 L/kg. Moreover, in data set [2] (setting [4]), the AUC came to 1.22 ± 0.276 µM·h, the MRT was 12.5 ± 2.4 h, the Tmax was found to be 5 ± 1 h and the half-life is 6.9 ± 1.3 h. Also, the Cmax in data set [2] (male, beagle, plasma, sc, 67 ug/kg, dog, subcutaneous 67 μg/kg, text of b538, read-out: maximum plasma concentration (Cmax)) is 90 ± 29 nM. For the same compound, the clearance in data set [2] (male, beagle, whole blood, 67 ug/kg, dog, intravenous 67 μg/kg, propylene glycol:phosphate buffer (50:50), read-out: CLB (systemic clearance)) was 0.9 ± 0.2 mL/min/kg.
